Drawing on ChEMBL document CHEMBL1122775, “NMR spectroscopic studies of intermediary metabolites of cyclophosphamide. A comprehensive kinetic analysis of the interconversion of cis- and trans-4-hydroxycyclophosphamide with aldophosphamide and the concomitant partitioning of aldophosphamide between irreversible fragmentation and reversible …” (J Med Chem, 1984), this text covers pKa for 2 molecules.

In general, pKa refers to the negative logarithm of the acid dissociation constant.

This data set can be described thus: pKa was determined. The class given is physicochemical.

As for `CC(C)(C)N` [TERT-BUTYLAMINE], the pKa was determined as 10.8.
Next, `COc1ccc(N)cc1`: 5.3.
